Measured values taken from patent US10351576B2, “Fused tricyclic pyrazole derivatives useful for farnesoid X receptors” (NOVARTIS AG, priority 2015, dated 2019).

Biological target: T1, human Farnesoid X Receptor (FXR) ligand binding domain (GST-FXR LBD) (Homo sapiens, UniProt Q96RI1)
T1 construct: purchased Invitrogen
T1 sequence (Q96RI1 193-472 isoform Q96RI1-2): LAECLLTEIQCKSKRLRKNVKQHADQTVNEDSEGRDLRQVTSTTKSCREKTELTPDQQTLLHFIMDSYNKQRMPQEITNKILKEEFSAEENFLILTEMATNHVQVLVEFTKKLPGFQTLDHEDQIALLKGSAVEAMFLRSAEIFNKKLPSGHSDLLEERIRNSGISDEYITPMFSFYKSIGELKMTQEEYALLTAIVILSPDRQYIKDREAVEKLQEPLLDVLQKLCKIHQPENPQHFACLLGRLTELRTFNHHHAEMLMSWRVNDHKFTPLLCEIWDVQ
Experiment: Human GST-FXR LBD co-activator interaction assay (FXR HTRF assay)
Type: biochemical
Settings: ligand-dependent interaction of GST-FXR LBD with biotin-labeled SRC-1 peptide, response relative to GW4064, read-out: FXR coactivator interaction assay (HTRF)
Excerpt: Human GST-FXR LBD Co-Activator Interaction Assay
The FXR HTRF assay is a biochemical assay measuring the interaction between FXR and a coactivator protein (SRC1). The ligand-induced interaction with a coactivator protein is a critical step in transcriptional activation by FXR. Thus, this is an assay designed to measure FXR agonist activity of the test compounds.
Recombinant human Farnesoid X Receptor (FXR) ligand binding domain (amino acids 193-472) fused to glutathione S-transferase (GST) purified protein (GST-FXR LBD) was purchased (Invitrogen). The ligand-dependent interaction between GST-FXR LBD and a peptide derived from Steroid Receptor Coactivator-1 (SRC-1) was monitored by Fluorescence Resonance Energy Transfer (FRET). […] Test compounds (in DMSO solution) and detection reagents (anti-GST-Cryptate labeled antibody and Streptavidin-XL665 conjugate; CisBio) were added in assay buffer containing 50 mM KF. Plates are incubated at room temperature in the dark for 2.5 hrs before reading on an Envision (PerkinElmer) at 665 nm and 590 nm. The HTRF assay results were calculated from the 665 nm/590 nm ratio (ratio=(A665 nm/A590 nm)×10^4) and expressed in Delta F %=(Ratiosample−Rationegative)/Rationegative×100.
A negative control (without Streptavidin-XL665) was run with each assay and represented the background fluorescence. A reference FXR agonist, (E)-3-(2-chloro-4-((3-(2,6-dichlorophenyl)-5-isopropylisoxazol-4-yl)methoxy)styryl)benzoic acid (Compound GW4064), was included in each experiment as positive control. The efficacy of each test compound was compared to that of GW4064. At each concentration, the relative activity of the test compound was expressed as Response %=(Rsample−RDMSO)/(Rpositive−RDMSO), where Rsample is the HTRF response (expressed in Delta F %) for the test compound, Rpositive is the maximal response for GW4064 at saturating concentrations, and RDMSO is the response for DMSO control. The EC50 values were calculated using GraphPad Prism (GraphPad Software) using non-linear regression curve fit (log(agonist) vs. response—variable slope (four parameters)).

Row | EC50 | SMILES
1 | 0.002 µM | Cn1nc(C(=O)N(CC(=O)NCC2CC2)Cc2cccc(F)c2)c2c1-c1cc(Cl)ccc1OC2 [Compound 1, 8-chloro-N-(2-((cyclopropylmethyl)amino)-2-oxoethyl)-N-(3-fluorobenzyl)-1-methyl-1,4-dihydrochromeno[4,3-c]pyrazole-3-carboxamide]
2 | 0.003 µM | Cn1nc(C(=O)N(CC(=O)NCCC(F)(F)F)Cc2cccc(F)c2)c2c1-c1cc(Cl)ccc1OC2 [Compound 2, 2-(1-{8-chloro-1-methyl-1H,4H-chromeno[4,3-c]pyrazol-3-yl}-N-[(3-fluorophenyl)methyl]formamido)-N-(3,3,3-trifluoropropyl)acetamide]
3 | 0.001 µM | Cn1nc(C(=O)N(CC(=O)NCC2CC2)Cc2ccccc2F)c2c1-c1cc(Cl)ccc1OC2 [Compound 3, 2-(1-{8-chloro-1-methyl-1H,4H-chromeno[4,3-c]pyrazol-3-yl}-N-[(2-fluorophenyl)methyl]formamido)-N-(cyclopropylmethyl)acetamide]
4 | 0.011 µM | Cn1nc(C(=O)N(CC(=O)NCCC(F)(F)F)Cc2ccccc2F)c2c1-c1cc(Cl)ccc1OC2 [Compound 4, 2-(1-{8-chloro-1-methyl-1H,4H-chromeno[4,3-c]pyrazol-3-yl}-N-[(2-fluorophenyl)methyl]formamido)-N-(3,3,3-trifluoropropyl)acetamide]
5 | 0.013 µM | Cn1nc(C(=O)N(CC(=O)NCC2CC2)Cc2c(F)cccc2F)c2c1-c1cc(Cl)ccc1OC2 [Compound 5, 2-(1-{8-chloro-1-methyl-1H,4H-chromeno[4,3-c]pyrazol-3-yl}-N-[(2,6-difluorophenyl)methyl]formamido)-N-(cyclopropylmethyl)acetamide]
6 | 0.012 µM | Cn1nc(C(=O)N(CC(=O)NCC2CC2)Cc2cccc(F)c2F)c2c1-c1cc(Cl)ccc1OC2 [Compound 6, 2-(1-{8-chloro-1-methyl-1H,4H-chromeno[4,3-c]pyrazol-3-yl}-N-[(2,3-difluorophenyl)methyl]formamido)-N-(cyclopropylmethyl) acetamide]
7 | 0.018 µM | Cn1nc(C(=O)N(CC(=O)NCC2CCOC2)Cc2ccccc2F)c2c1-c1cc(Cl)ccc1OC2 (stereo not shown) [Compound 7, 2-(1-{8-chloro-1-methyl-1H,4H-chromeno[4,3-c]pyrazol-3-yl}-N-[(2-fluorophenyl)methyl]formamido)-N-(oxolan-3-ylmethyl) acetamide]
8 | 0.031 µM | Cn1nc(C(=O)N(CC(=O)NC2CC2)Cc2ccccc2F)c2c1-c1cc(Cl)ccc1OC2 [Compound 8, 2-(1-{8-chloro-1-methyl-1H,4H-chromeno[4,3-c]pyrazol-3-yl}-N-[(2-fluorophenyl)methyl]formamido)-N-cyclopropylacetamide]
9 | 0.003 µM | Cn1nc(C(=O)N(CC(=O)NCCF)Cc2cccc(F)c2)c2c1-c1cc(Cl)ccc1OC2 [Compound 9, 2-(1-{8-chloro-1-methyl-1H,4H-chromeno[4,3-c]pyrazol-3-yl}-N-[(3-fluorophenyl)methyl]formamido)-N-(2-fluoroethyl)acetamide]
10 | 0.021 µM | Cn1nc(C(=O)N(CC(=O)NC2CC2(F)F)Cc2cccc(F)c2)c2c1-c1cc(Cl)ccc1OC2 (stereo not shown) [Compound 10, 2-(1-{8-chloro-1-methyl-1H,4H-chromeno[4,3-c]pyrazol-3-yl}-N-[(3-fluorophenyl)methyl]formamido)-N-(2,2-difluorocyclopropyl)acetamide]
11 | 0.013 µM | Cn1nc(C(=O)N(CC(=O)NCCF)Cc2ccccc2F)c2c1-c1cc(Cl)ccc1OC2 [Compound 11, 2-(1-{8-chloro-1-methyl-1H,4H-chromeno[4,3-c]pyrazol-3-yl}-N-[(2-fluorophenyl)methyl]formamido)-N-(2-fluoroethyl)acetamide]
12 | 0.014 µM | Cn1nc(C(=O)N(CC(=O)NC2CCC2)Cc2cccc(F)c2)c2c1-c1cc(Cl)ccc1OC2 [Compound 12, 2-(1-{8-chloro-1-methyl-1H,4H-chromeno[4,3-c]pyrazol-3-yl}-N-[(3-fluorophenyl)methyl]formamido)-N-cyclobutylacetamide]
13 | 0.034 µM | CC(C)NC(=O)CN(Cc1cc(F)cc(F)c1)C(=O)c1nn(C)c2c1COc1ccc(Br)cc1-2 [Compound 13, 2-(1-{8-bromo-1-methyl-1H,4H-chromeno[4,3-c]pyrazol-3-yl}-N-[(3,5-difluorophenyl)methyl]formamido)-N-(propan-2-yl)acetamide]
14 | 0.058 µM | Cn1nc(C(=O)N(CC(=O)NC(C)(C)C)Cc2cccc(F)c2)c2c1-c1cc(Cl)ccc1OC2 [Compound 14, N-tert-butyl-2-(1-{8-chloro-1-methyl-1H,4H-chromeno[4,3-c]pyrazol-3-yl}-N-[(3-fluorophenyl)methyl]formamido)acetamide]
15 | 0.027 µM | CC(C)NC(=O)CN(Cc1cccc(F)c1)C(=O)c1nn(C)c2c1COc1ccc(Cl)cc1-2 [Compound 15, 2-(1-{8-chloro-1-methyl-1H,4H-chromeno[4,3-c]pyrazol-3-yl}-N-[(3-fluorophenyl)methyl]formamido)-N-(propan-2-yl)acetamide]
16 | 0.049 µM | CC(C)NC(=O)CN(Cc1cc(F)ccc1F)C(=O)c1nn(C)c2c1COc1ccc(Br)cc1-2 [Compound 16, 2-(1-{8-bromo-1-methyl-1H,4H-chromeno[4,3-c]pyrazol-3-yl}-N-[(2,5-difluorophenyl)methyl]formamido)-N-(propan-2-yl)acetamide]
17 | 0.054 µM | CCNC(=O)CN(Cc1ccccc1F)C(=O)c1nn(C)c2c1COc1ccc(Cl)cc1-2 [Compound 17, 2-(1-{8-chloro-1-methyl-1H,4H-chromeno[4,3-c]pyrazol-3-yl}-N-[(2-fluorophenyl)methyl]formamido)-N-ethylacetamide]
18 | 0.064 µM | Cn1nc(C(=O)N(CC(=O)NC2CCCC2)Cc2ccccc2F)c2c1-c1cc(Cl)ccc1OC2 [Compound 18, 2-(1-{8-chloro-1-methyl-1H,4H-chromeno[4,3-c]pyrazol-3-yl}-N-[(2-fluorophenyl)methyl]formamido)-N-cyclopentylacetamide]
19 | 0.049 µM | Cn1nc(C(=O)N(CC(=O)NC2CCC2)Cc2ccccc2F)c2c1-c1cc(Cl)ccc1OC2 [Compound 19, 2-(1-{8-chloro-1-methyl-1H,4H-chromeno[4,3-c]pyrazol-3-yl}-N-[(2-fluorophenyl)methyl]formamido)-N-cyclobutylacetamide]
20 | 0.246 µM | Cn1nc(C(=O)N(CC(=O)Nc2ccc(C(=O)N3CCOCC3)cc2)Cc2ccccc2F)c2c1-c1cc(Cl)ccc1OC2 [Compound 20, 2-(1-{8-chloro-1-methyl-1H,4H-chromeno[4,3-c]pyrazol-3-yl}-N-[(2-fluorophenyl)methyl]formamido)-N-[4-(morpholine-4-carbonyl)phenyl]acetamide]
21 | 0.16 µM | Cn1nc(C(=O)N(CC(=O)NC[C@@H]2CCCO2)Cc2ccccc2F)c2c1-c1cc(Cl)ccc1OC2 [Compound 21, 2-(1-{8-chloro-1-methyl-1H,4H-chromeno[4,3-c]pyrazol-3-yl}-N-[(2-fluorophenyl)methyl]formamido)-N-[(2S)-oxolan-2-ylmethyl]acetamide]
22 | 0.06 µM | Cn1nc(C(=O)N(CC(=O)NC2CC2)Cc2cccc(F)c2F)c2c1-c1cc(Cl)ccc1OC2 [Compound 22, 2-(1-{8-chloro-1-methyl-1H,4H-chromeno[4,3-c]pyrazol-3-yl}-N-[(2,3-difluorophenyl)methyl]formamido)-N-cyclopropylacetamide]
23 | 0.087 µM | Cn1nc(C(=O)N(CC(=O)NC2CC2(F)F)Cc2ccccc2F)c2c1-c1cc(Cl)ccc1OC2 (stereo not shown) [Compound 23, 2-(1-{8-chloro-1-methyl-1H,4H-chromeno[4,3-c]pyrazol-3-yl}-N-[(2-fluorophenyl)methyl]formamido)-N-(2,2-difluorocyclopropyl)acetamide]
24 | 0.078 µM | CC(C)NC(=O)CN(Cc1cc(F)cc(F)c1)C(=O)c1nn(C)c2c1COc1ccc(Cl)cc1-2 [Compound 24, 2-(1-{8-chloro-1-methyl-1H,4H-chromeno[4,3-c]pyrazol-3-yl}-N-[(3,5-difluorophenyl)methyl]formamido)-N-(propan-2-yl)acetamide]
25 | 0.032 µM | CC(C)NC(=O)CN(Cc1ccccc1)C(=O)c1nn(C)c2c1COc1ccc(Br)cc1-2 [Compound 25, 2-(N-benzyl-1-{8-bromo-1-methyl-1H,4H-chromeno[4,3-c]pyrazol-3-yl}formamido)-N (propan-2-yl)acetamide]
